From ChEMBL document CHEMBL3046044, “Evaluation of mefenamic acid mutual prodrugs” (Med Chem Res, 2013)
Blank lines part the entries; values can stand above or below the compound they belong to.

Experiments:
Rattus norvegicus [1] = assay: Inhibition of superoxide dismutase level in Rattus norvegicus (rat) stomach at 1260 mg/kg, po after 12 hr (reference value: 37.096 +/- 7.335%); format: functional
Rattus norvegicus [2] = assay: Effect on protein level in Rattus norvegicus (rat) stomach at 1260 mg/kg, po after 12 hr by Bradford method (reference value: 42.5 +/- 5.773 ug/ml); format: functional
Rattus norvegicus [3] = assay: Antioxidant activity in Rattus norvegicus (rat) stomach assessed as effect on catalase level measured per mg of protein at 1260 mg/kg, po after 12 hr by spectrophotometric analysis (reference value: 26.055 +/- 4.669 U); format: functional
Rattus norvegicus [4] = assay: Antioxidant activity in Rattus norvegicus (rat) stomach assessed as effect on GSH level measured per 100 g of protein at 1260 mg/kg, po after 12 hr by Ellman's method (reference value: 350.735 +/- 42.887 uM); format: functional
Rattus norvegicus [5] = assay: Antioxidant activity in Rattus norvegicus (rat) stomach assessed as reduction of lipid peroxidation measured MDA level per mg of protein at 800 mg/kg, po after 12 hr by TBARS assay (reference value: 4.388 +/- 0.404 nM); format: functional
Rattus norvegicus [6] = assay: Increase in hexosamine level in Rattus norvegicus (rat) stomach at 1260 mg/kg, po after 12 hr (reference value: 122.323 +/- 4.639 ug/ml); format: functional
Rattus norvegicus [7] = assay: Reduction of gastric wall mucus level in Rattus norvegicus (rat) stomach measured per mg of protein at 1260 mg/kg, po after 12 hr by alcian blue staining (reference value: 285.680 +/- 3.348 ug); format: functional
[8] = Half life in Homo sapiens (human) 80% plasma at 10 mg at pH 7.4; format: ADME, cell-free; details: 80% human plasma
[9] = Half life in isotonic phosphate buffer at 10 mg at pH 7.4; format: physicochemical
[10] = Half life in hydrochloric acid buffer at 10 mg at pH 1.2; format: physicochemical
[11] = Solubility of the compound in benzene at 10 mg; format: physicochemical
[12] = n-Octanol-phosphate buffer partition coefficient, log P of the compound at pH 7.4 by HPLC method; format: physicochemical
[13] = Solubility of the compound in dichloromethane at 10 mg; format: physicochemical
[14] = Solubility of the compound in ethanol at 10 mg; format: physicochemical
[15] = Solubility of the compound in chloroform at 10 mg; format: physicochemical
[16] = Solubility of the compound in methanol at 10 mg; format: physicochemical
[17] = Solubility of the compound in 0.1 N hydrochloric acid at 10 mg; format: physicochemical
[18] = Solubility of the compound in 0.1 N sodium hydroxide at 10 mg; format: physicochemical
Rattus norvegicus [19] = assay: Anti-inflammatory activity in Rattus norvegicus Wistar albino (rat) assessed as inhibition of carrageenan-induced paw edema at 126 mg/kg, po measured at 24 hr relative to control; format: functional
Rattus norvegicus [20] = assay: Anti-inflammatory activity in Rattus norvegicus Wistar albino (rat) assessed as inhibition of carrageenan-induced paw edema at 126 mg/kg, po measured at 6 hr relative to control; format: functional
Rattus norvegicus [21] = assay: Anti-inflammatory activity in Rattus norvegicus Wistar albino (rat) assessed as inhibition of carrageenan-induced paw edema at 126 mg/kg, po measured at 4 hr relative to control; format: functional
Rattus norvegicus [22] = assay: Anti-inflammatory activity in Rattus norvegicus Wistar albino (rat) assessed as inhibition of carrageenan-induced paw edema at 126 mg/kg, po measured at 3 hr relative to control; format: functional
Rattus norvegicus [23] = assay: Ulcerogenicity in Rattus norvegicus (rat) stomach assessed as ulcer index at 1260 mg/kg, po after 12 hr (reference value: 3.413 +/- 2.160 no unit); format: toxicity, organism-based; design: dose 1260 mg/kg, route oral; details: in vivo
Mus musculus = assay: Analgesic activity in po dosed Mus musculus Swiss albino (mouse) assessed as inhibition of acetic acid-induced writhing administered 1 hr prior to acetic acid challenge measured for 20 min relative to control; format: functional
Rattus norvegicus [24] = assay: Inhibition of superoxide dismutase level in Rattus norvegicus (rat) stomach at 1240 mg/kg, po after 12 hr (reference value: 37.096 +/- 7.335%); format: functional
Rattus norvegicus [25] = assay: Effect on protein level in Rattus norvegicus (rat) stomach at 1240 mg/kg, po after 12 hr by Bradford method (reference value: 42.5 +/- 5.773 ug/ml); format: functional
Rattus norvegicus [26] = assay: Antioxidant activity in Rattus norvegicus (rat) stomach assessed as effect on catalase level measured per mg of protein at 1240 mg/kg, po after 12 hr by spectrophotometric analysis (reference value: 26.055 +/- 4.669 U); format: functional
Rattus norvegicus [27] = assay: Antioxidant activity in Rattus norvegicus (rat) stomach assessed as effect on GSH level measured per 100 g of protein at 1240 mg/kg, po after 12 hr by Ellman's method (reference value: 350.735 +/- 42.887 uM); format: functional
Rattus norvegicus [28] = assay: Antioxidant activity in Rattus norvegicus (rat) stomach assessed as reduction of lipid peroxidation measured MDA level per mg of protein at 1260 mg/kg, po after 12 hr by TBARS assay (reference value: 4.388 +/- 0.404 nM); format: functional
Rattus norvegicus [29] = assay: Increase in hexosamine level in Rattus norvegicus (rat) stomach at 1240 mg/kg, po after 12 hr (reference value: 122.323 +/- 4.639 ug/ml); format: functional
Rattus norvegicus [30] = assay: Reduction of gastric wall mucus level in Rattus norvegicus (rat) stomach measured per mg of protein at 1240 mg/kg, po after 12 hr by alcian blue staining (reference value: 285.680 +/- 3.348 ug); format: functional
Rattus norvegicus [31] = assay: Anti-inflammatory activity in Rattus norvegicus Wistar albino (rat) assessed as inhibition of carrageenan-induced paw edema at 124 mg/kg, po measured at 24 hr relative to control; format: functional
Rattus norvegicus [32] = assay: Anti-inflammatory activity in Rattus norvegicus Wistar albino (rat) assessed as inhibition of carrageenan-induced paw edema at 124 mg/kg, po measured at 6 hr relative to control; format: functional
Rattus norvegicus [33] = assay: Anti-inflammatory activity in Rattus norvegicus Wistar albino (rat) assessed as inhibition of carrageenan-induced paw edema at 124 mg/kg, po measured at 4 hr relative to control; format: functional
Rattus norvegicus [34] = assay: Anti-inflammatory activity in Rattus norvegicus Wistar albino (rat) assessed as inhibition of carrageenan-induced paw edema at 124 mg/kg, po measured at 3 hr relative to control; format: functional
Rattus norvegicus [35] = assay: Ulcerogenicity in Rattus norvegicus (rat) stomach assessed as ulcer index at 1240 mg/kg, po after 12 hr (reference value: 3.413 +/- 2.160 no unit); format: toxicity, organism-based; design: dose 1240 mg/kg, route oral; details: in vivo
Rattus norvegicus [36] = assay: Anti-inflammatory activity in Rattus norvegicus Wistar albino (rat) assessed as inhibition of carrageenan-induced paw edema at 80 mg/kg, po measured at 4 hr relative to control; format: functional
Rattus norvegicus [37] = assay: Anti-inflammatory activity in Rattus norvegicus Wistar albino (rat) assessed as inhibition of carrageenan-induced paw edema at 80 mg/kg, po measured at 3 hr relative to control; format: functional
Rattus norvegicus [38] = assay: Effect on protein level in Rattus norvegicus (rat) stomach at 800 mg/kg, po after 12 hr by Bradford method (reference value: 42.5 +/- 5.773 ug/ml); format: functional
Rattus norvegicus [39] = assay: Inhibition of superoxide dismutase level in Rattus norvegicus (rat) stomach at 800 mg/kg, po after 12 hr (reference value: 37.096 +/- 7.335%); format: functional
Rattus norvegicus [40] = assay: Antioxidant activity in Rattus norvegicus (rat) stomach assessed as effect on catalase level measured per mg of protein at 800 mg/kg, po after 12 hr by spectrophotometric analysis (reference value: 26.055 +/- 4.669 U); format: functional
Rattus norvegicus [41] = assay: Antioxidant activity in Rattus norvegicus (rat) stomach assessed as effect on GSH level measured per 100 g of protein at 800 mg/kg, po after 12 hr by Ellman's method (reference value: 350.735 +/- 42.887 uM); format: functional
Rattus norvegicus [42] = assay: Antioxidant activity in Rattus norvegicus (rat) stomach assessed as reduction of lipid peroxidation measured MDA level per mg of protein at 1240 mg/kg, po after 12 hr by TBARS assay (reference value: 4.388 +/- 0.404 nM); format: functional
Rattus norvegicus [43] = assay: Increase in hexosamine level in Rattus norvegicus (rat) stomach at 800 mg/kg, po after 12 hr (reference value: 122.323 +/- 4.639 ug/ml); format: functional
Rattus norvegicus [44] = assay: Reduction of gastric wall mucus level in Rattus norvegicus (rat) stomach measured per mg of protein at 800 mg/kg, po after 12 hr by alcian blue staining (reference value: 285.680 +/- 3.348 ug); format: functional
Rattus norvegicus [45] = assay: Ulcerogenicity in Rattus norvegicus (rat) stomach assessed as ulcer index at 800 mg/kg, po after 12 hr (reference value: 3.413 +/- 2.160 no unit); format: toxicity, organism-based; design: dose 800 mg/kg, route oral; details: in vivo
Rattus norvegicus [46] = assay: Anti-inflammatory activity in Rattus norvegicus Wistar albino (rat) assessed as inhibition of carrageenan-induced paw edema at 80 mg/kg, po measured at 24 hr relative to control; format: functional
Rattus norvegicus [47] = assay: Anti-inflammatory activity in Rattus norvegicus Wistar albino (rat) assessed as inhibition of carrageenan-induced paw edema at 80 mg/kg, po measured at 6 hr relative to control; format: functional

- half-life [8]: 1.43 h
- half-life [9]: 8.87 h
- half-life [10]: 20.8 h
- solubility [11]: soluble
- logD [12]: 4.98
- solubility [13]: soluble
- solubility [14]: soluble
- solubility [15]: soluble
- solubility [16]: soluble
- solubility [17]: Insoluble
- solubility [18]: soluble
Compound: Cc1cccc(Nc2ccccc2C(=O)OC2CC(C)CCC2C(C)C)c1C (stereo not drawn) [Mefenamic acid-menthol]
- inhibition in vivo at 1260 mg/kg (Rattus norvegicus [1]): 29.2%
- Activity (Rattus norvegicus [2]): 32.083 µg/mL
- Activity (Rattus norvegicus [3]): 23.807 U
- Activity (Rattus norvegicus [4]): 261.03 µM
- Activity (Rattus norvegicus [5]): 16.056 nM
- Activity (Rattus norvegicus [6]): 144.445 µg/mL
- Activity (Rattus norvegicus [7]): 227.7692 µg
- inhibition in vivo at 126 mg/kg (Rattus norvegicus [19]): 67.1%
- inhibition in vivo at 126 mg/kg (Rattus norvegicus [20]): 51.6%
- inhibition in vivo at 126 mg/kg (Rattus norvegicus [21]): 44.1%
- inhibition in vivo at 126 mg/kg (Rattus norvegicus [22]): 41.7%
- UI (Rattus norvegicus [23]): 5.117
- inhibition (INH) (Mus musculus): 55.184%

- half-life [8]: 1.14 h
- half-life [9]: 7.11 h
- half-life [10]: 23.1 h
- solubility [11]: soluble
- logD [12]: 5.45
- solubility [13]: soluble
- solubility [14]: soluble
- solubility [15]: soluble
- solubility [16]: soluble
- solubility [17]: Insoluble
- solubility [18]: soluble
Compound: Cc1ccc(C(C)C)c(OC(=O)c2ccccc2Nc2cccc(C)c2C)c1
- inhibition in vivo at 1240 mg/kg (Rattus norvegicus [24]): 33.3%
- Activity (Rattus norvegicus [25]): 42.917 µg/mL
- Activity (Rattus norvegicus [26]): 23.089 U
- Activity (Rattus norvegicus [27]): 286.765 µM
- Activity (Rattus norvegicus [28]): 13.972 nM
- Activity (Rattus norvegicus [29]): 151.249 µg/mL
- Activity (Rattus norvegicus [30]): 190.256 µg
- inhibition in vivo at 124 mg/kg (Rattus norvegicus [31]): 62.4%
- inhibition in vivo at 124 mg/kg (Rattus norvegicus [32]): 51%
- inhibition in vivo at 124 mg/kg (Rattus norvegicus [33]): 41.7%
- inhibition in vivo at 124 mg/kg (Rattus norvegicus [34]): 37.8%
- UI (Rattus norvegicus [35]): 6.833
- inhibition (INH) (Mus musculus): 52.722%

- solubility [11]: soluble
- solubility [13]: soluble
- solubility [14]: soluble
- solubility [15]: soluble
- solubility [16]: soluble
- solubility [17]: Insoluble
- solubility [18]: soluble
Compound: Cc1cccc(Nc2ccccc2C(=O)O)c1C [MEFENAMIC ACID]
- inhibition in vivo at 80 mg/kg (Rattus norvegicus [36]): 50.6%
- inhibition in vivo at 80 mg/kg (Rattus norvegicus [37]): 48.8%
- Activity (Rattus norvegicus [38]): 12.083 µg/mL
- inhibition in vivo at 800 mg/kg (Rattus norvegicus [39]): 24.2%
- Activity (Rattus norvegicus [40]): 4.587 U
- Activity (Rattus norvegicus [41]): 413.603 µM
- Activity (Rattus norvegicus [42]): 26.25 nM
- Activity (Rattus norvegicus [43]): 139.224 µg/mL
- Activity (Rattus norvegicus [44]): 170.026 µg
- UI (Rattus norvegicus [45]): 10.867
- inhibition (INH) (Mus musculus): 63.321%
- inhibition in vivo at 80 mg/kg (Rattus norvegicus [46]): 69.1%
- inhibition in vivo at 80 mg/kg (Rattus norvegicus [47]): 64.1%
